For orientation: inhibition means the drop in the measured response relative to a control, in per cent.

We go through ten compounds from ChEMBL document CHEMBL3727345, “New compounds” (2012).

The target in the assay is fructose-2,6-bisphosphatase 3/4 (Homo sapiens) (UniProt Q16875+Q16877). As to the kind of experiment: Inhibition of PFKFB3/PFKFB4 in human Panc1 cells assessed as fructose -2,6-bisphosphate production at 12.5 uM preincubated for 1 hr followed by addition of D-glucose measured after 2 hrs by spectrophotometry. It is filed as cell-based. The conditions noted are these: PANC-1.
fructose-2,6-bisphosphatase 3/4 (Homo sapiens), sequence (Q16875 whole entry, looked up): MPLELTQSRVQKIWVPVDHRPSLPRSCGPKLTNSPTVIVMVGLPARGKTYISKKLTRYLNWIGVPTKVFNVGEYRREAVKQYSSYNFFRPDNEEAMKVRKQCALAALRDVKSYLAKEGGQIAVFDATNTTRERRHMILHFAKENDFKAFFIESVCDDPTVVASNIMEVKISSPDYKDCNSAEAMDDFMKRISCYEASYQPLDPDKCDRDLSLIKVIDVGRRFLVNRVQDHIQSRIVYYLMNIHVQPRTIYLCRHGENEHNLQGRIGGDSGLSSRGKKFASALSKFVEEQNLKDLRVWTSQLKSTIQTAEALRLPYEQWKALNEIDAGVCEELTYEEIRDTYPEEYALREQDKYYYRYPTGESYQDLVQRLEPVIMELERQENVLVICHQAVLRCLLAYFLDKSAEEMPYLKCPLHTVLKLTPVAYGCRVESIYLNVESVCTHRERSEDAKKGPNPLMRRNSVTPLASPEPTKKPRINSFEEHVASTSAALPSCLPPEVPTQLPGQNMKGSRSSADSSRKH
fructose-2,6-bisphosphatase 3/4 (Homo sapiens), sequence (Q16877 whole entry, looked up): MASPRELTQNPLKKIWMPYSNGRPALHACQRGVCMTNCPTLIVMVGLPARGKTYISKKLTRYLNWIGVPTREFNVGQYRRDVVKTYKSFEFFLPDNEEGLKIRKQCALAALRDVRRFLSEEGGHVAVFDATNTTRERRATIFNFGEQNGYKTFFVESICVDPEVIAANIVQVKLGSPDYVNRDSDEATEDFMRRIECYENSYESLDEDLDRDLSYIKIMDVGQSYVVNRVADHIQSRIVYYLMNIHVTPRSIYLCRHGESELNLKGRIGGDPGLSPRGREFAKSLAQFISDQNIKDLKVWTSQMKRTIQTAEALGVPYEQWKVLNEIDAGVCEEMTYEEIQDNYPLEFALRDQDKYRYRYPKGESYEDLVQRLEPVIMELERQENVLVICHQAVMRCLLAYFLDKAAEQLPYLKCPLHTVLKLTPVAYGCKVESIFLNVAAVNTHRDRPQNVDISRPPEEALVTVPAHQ

With `Cc1c(S(=O)(=O)Nc2cccc(C(=O)OCc3ccccc3)c2)sc2ccc(Cl)cc12`, the inhibition was greater than 50%. The value for `CCCCCOC(=O)c1cccc(NS(=O)(=O)c2sc3ccc(Cl)cc3c2C)c1` was greater than 50%; that for `Cc1c(S(=O)(=O)Nc2cccc(C(=O)Oc3ccccc3)c2)sc2ccc(Cl)cc12` was greater than 50%. To `Cc1c(S(=O)(=O)Nc2cccc(C(=O)OCCn3cccc3)c2)sc2ccc(Cl)cc12` belongs greater than 50%. The value for `CCOC(=O)c1sc(NS(=O)(=O)c2cc(-c3cc(F)ccc3F)c(Cl)s2)nc1C` was greater than 50%; that for `Cc1c(S(=O)(=O)Nc2cccc(C(=O)OCC3CCOC3)c2)sc2ccc(Cl)cc12` (stereo not given) was greater than 50%. With `CCOC(=O)c1cccc(NS(=O)(=O)c2sc3ccc(Cl)cc3c2C)c1`, the inhibition is greater than 50%. To `CCOC(=O)c1sc(NS(=O)(=O)c2sc3ccc(Cl)cc3c2C)nc1C` belongs greater than 50%. In the case of `COC(=O)c1cccc(NS(=O)(=O)c2oc3ccc(C(C)C)cc3c2C)c1`, the inhibition is greater than 50%. `COCCOC(=O)c1cccc(NS(=O)(=O)c2sc3ccc(Cl)cc3c2C)c1`: the inhibition is greater than 50%.
